Experiments:
[1] = in vitro; conditions: human, HeLa cells
[2] = test system: THP-1 cells; test: HOXB4-WT transduction: target gene mRNA by real-time PCR (Fold over control) and total RNA (ng/μL) as marker for cell viability; assay type: cell-based, human; conditions: for Total RNA in ng/μL (mean ± St. Dev): THP-1, serum
Description: Control and treated cells are transferred to separate sterile 1.5-mL tubes and centrifuged for 5 minutes at 300g. The cell pellets are resuspended in appropriate buffer to lyse the cells. RNAase-free 70% ethanol is then added followed by mixing by pipetting. The lysates are transferred to an RNeasy™ Mini spin column and centrifuged 30 seconds at 13000 RPM. After several washes with appropriate buffers and centrifugation steps, the eluates are collected in sterile 1.5-mL tubes on ice, and the RNA quantity in each tube is then quantified with a spectrophotometer. For DNase treatment, 2 μg of RNA is diluted in 15 μL of RNase-free water. 1.75 μL of 10X DNase buffer and 0.75 μL of DNase is then added, followed by incubation at 37° C. for 15 minutes. For reverse transcriptase treatment, 0.88 μL of EDTA […] is added, followed by incubation at 75° C. for 5 minutes. In a PCR tube, […] of DNase-treated RNA is mixed with 4 μL of iScript™ Reverse transcription Supermix (5X) and […] of nuclease-free water. The mix is incubated in a PCR machine with the following program: 5 min at 25° C., 30 min at 42° C. and 5 min at 85° C. Newly synthesized cDNA is transferred in sterile 1.5-mL tubes and diluted in 2 μL of nuclease-free water. 18 μL per well of a qPCR machine (CFX-96™) mix is then added in a PCR plate for analysis.
Briefly, THP-1 cells were plated at 30 000 cells/well one day before transduction. HOXB4-WT recombinant protein ([…]; Example 14.1) was co-incubated with different concentrations of His-CM18-PTD4 ([…]) and then exposed to THP-1 cells for 2.5 hours in the presence of serum. The cells were subjected to real time-PCR analysis as described in Example 14.2 to measure the mRNA levels of a target gene as a marker for HOXB4 activity, which was then normalized to the target gene mRNA levels detected in the negative control cells (no treatment), to obtain a “Fold over control” value. Total RNA levels (ng/μL) were also measured as a marker for cell viability.
Briefly, THP-1 cells were plated at 30 000 cells/well one day before the first time course experiment. HOXB4-WT recombinant protein (1.5 μM; Example 14.1) was co-incubated with His-CM18-PTD4 (0.8 μM) and then exposed to THP-1 cells for 0, 2.5, 4, 24 or 48 hours in presence of serum. The cells were subjected to real time-PCR analysis as described in Example 14.2 to measure mRNA levels of a target gene as a marker for HOXB4 activity, which was then normalized to the target gene mRNA levels detected in the negative control cells (no treatment), to obtain a “Fold over control” value. Total RNA levels (ng/μL) were also measured as a marker for cell viability.
Briefly, THP-1 cells were plated at 30 000 cells/well one day before the first time course experiment. HOXB4-WT recombinant protein (0.3 μM; Example 14.1) was co-incubated with His-CM18-PTD4 (0.8 μM) and then exposed to THP-1 cells for 0, 0.5, 1, 2, 2.5, 3 or 4 hours in presence of serum. The cells were subjected to real time-PCR analysis as described in Example 14.2 to measure mRNA levels of a target gene as a marker for HOXB4 activity, which was then normalized to target gene mRNA levels detected in the negative control cells (no treatment), to obtain a “Fold over control” value. Total RNA levels (ng/μL) were also measured as a marker for cell viability.
Briefly, THP-1 cells were plated at 30 000 cells/well one day before the first time course experiment. HOXB4-WT recombinant protein (1.5 μM; Example 14.1) co-incubated with the shuttle agents His-CM18-PTD4, TAT-KALA, EB1-PTD4, His-C(LLKK)3C-PTD4 and His-CM18-PTD4-His at 0.8 μM, and then exposed to THP-1 cells for 2.5 hours in presence of serum. The cells were subjected to real time-PCR analysis as described in Example 14.2 to measure mRNA levels of a target gene as a marker for HOXB4 activity, which was then normalized to target gene mRNA levels detected in the negative control cells (no treatment), to obtain a “Fold over control” value. […]

[3] = test system: HeLa cells; test: GFP-NLS protein transduction assay (flow cytometry: Pos cells %, viability %, relative fluorescence intensity; microscopy); conditions: for Relative fluorescence intensity (FL1-A) (n = 3): Table 10.3, Protocol C
[4] = HeLa, Protocol B, 35 μM shuttle, 5 μM GFP-NLS, 10 seconds
[5] = Table 10.3a, Protocol B, HeLa, shuttle 50 μM, GFP-NLS 5 μM, 10 seconds

## CC[C@H](C)[C@H](NC(=O)[C@H](CCCCN)NC(=O)[C@H](CCCCN)NC(=O)[C@H](Cc1ccccc1)NC(=O)[C@H](CC(C)C)NC(=O)[C@H](CCCCN)NC(=O)[C@H](Cc1c[nH]c2ccccc12)NC(=O)[C@H](CCCCN)NC(=O)[C@H](Cc1c[nH]cn1)NC(=O)[C@H](Cc1c[nH]cn1)NC(=O)[C@H](Cc1c[nH]cn1)NC(=O)[C@H](Cc1c[nH]cn1)NC(=O)[C@H](Cc1c[nH]cn1)NC(=O)[C@@H](N)Cc1c[nH]cn1)C(=O)NCC(=O)N[C@@H](C)C(=O)N[C@H](C(=O)N[C@@H](CC(C)C)C(=O)N[C@@H](CCCCN)C(=O)N[C@H](C(=O)N[C@@H](CC(C)C)C(=O)N[C@H](C(=O)N[C@H](C(=O)NCC(=O)N[C@@H](Cc1ccc(O)cc1)C(=O)N[C@@H](C)C(=O)N[C@@H](CCCNC(=N)N)C(=O)N[C@@H](C)C(=O)N[C@@H](C)C(=O)N[C@@H](C)C(=O)N[C@@H](CCCNC(=N)N)C(=O)N[C@@H](CCC(N)=O)C(=O)N[C@@H](C)C(=O)N[C@@H](CCCNC(=N)N)C(=O)N[C@@H](C)C(=O)O)[C@@H](C)O)[C@@H](C)O)C(C)C)C(C)C [His-CM18-PTD4]
[1]
  viability: 63.2 ± 4.07%
[2]; 2.5 hours in the presence of serum
  target gene mRNA transcription after HOXB4-WT transduction (in words): dose-dependent increase in mRNA transcription of the target gene
[2]; Table 14.1, 2.5 hours, shuttle 1 μM, HOXB4-WT 0 μM (alone)
  Total RNA in ng/μL (mean ± St. Dev): 252 ± 10.7 ng/µL
[2]; Table 14.2, shuttle 0.8 μM, HOXB4-WT 0 μM (alone), exposure 2.5 h
  Total RNA in ng/μL (mean ± St. Dev): 184 ± 6.0 ng/µL
[2]; Table 14.3, shuttle 0 μM, HOXB4-WT 0.3 μM (alone), exposure 2.5 h
  Total RNA in ng/μL (mean ± St. Dev): 260 ± 7.1 ng/µL
[2]; Table 14.4, shuttle 0 μM, HOXB4-WT 1.5 μM (alone), exposure 2.5 h
  Total RNA in ng/μL (mean ± St. Dev): 303.9 ± 7.6 ng/µL
[3]; [4]
  Cell viability (%) (±St. Dev.; n = 3): 94.6 ± 0.4%
  Mean % cells with GFP signal (±St. Dev.; n = 3): 72.3 ± 5.3%
[3]; Table 9.1, Protocol A, HeLa, shuttle 10 μM, GFP-NLS 5 μM, 1 hour
  Mean % cells with GFP signal (±St. Dev.; n = 3): 25.4 ± 3.6%
[3]; Table 9.1, Protocol B, HeLa, shuttle 35 μM, GFP-NLS 5 μM, 10 seconds
  Mean % cells with GFP signal (±St. Dev.; n = 3): 78.3 ± 5.3%
[3]; Table 9.2, Protocol B, HeLa, shuttle 10 μM, GFP-NLS 5 μM, 10 seconds
  Mean % cells with GFP signal (±St. Dev.; n = 3): 25.3 ± 3.6%
[3]; Table 9.2, Protocol B, HeLa, shuttle 25 μM, GFP-NLS 5 μM, 10 seconds
  Mean % cells with GFP signal (±St. Dev.; n = 3): 62.1 ± 6.1%
[3]; Table 9.2, Protocol B, HeLa, shuttle 35 μM, GFP-NLS 5 μM, 10 seconds
  Mean % cells with GFP signal (±St. Dev.; n = 3): 77.7 ± 7.8%
[3]; Table 9.2, Protocol B, HeLa, shuttle 50 μM, GFP-NLS 5 μM, 10 seconds
  Mean % cells with GFP signal (±St. Dev.; n = 3): 73.2 ± 5.2%
[3]; Table 10.1, Protocol B, HeLa, shuttle 50 μM, GFP-NLS 5 μM, 10 seconds
  Mean % cells with GFP signal (±St. Dev.; n = 3): 68 ± 2.2%
[3]; Table 10.2, Protocol B, HeLa, shuttle 10 μM, GFP-NLS 5 μM, incubation 1 min.
  Mean % cells with GFP signal (±St. Dev.; n = 3): 50.6 ± 3.5%
[3]; Table 10.2, Protocol B, HeLa, shuttle 10 μM, GFP-NLS 5 μM, incubation 2 min.
  Mean % cells with GFP signal (±St. Dev.; n = 3): 74 ± 3.3%
[3]; Table 10.2, Protocol B, HeLa, shuttle 10 μM, GFP-NLS 5 μM, incubation 5 min.
  Mean % cells with GFP signal (±St. Dev.; n = 3): 82.7 ± 5.0%
[3]; HeLa, shuttle 10 μM, GFP-NLS 5 μM, incubation 1 min.
  Relative fluorescence intensity (FL1-A) (n = 3): 524 151
[3]; HeLa, shuttle 10 μM, GFP-NLS 5 μM, incubation 2 min.
  Relative fluorescence intensity (FL1-A) (n = 3): 755 624
[3]; HeLa, shuttle 10 μM, GFP-NLS 5 μM, incubation 5 min.
  Relative fluorescence intensity (FL1-A) (n = 3): 173 930
[3]; [5]
  Cell viability (%) (±St. Dev.; n = 3): 92 ± 3.6%
  Mean % cells with GFP signal (±St. Dev.; n = 3): 68 ± 2.2%
[3]; Table 10.3e, Protocol B, HeLa, shuttle 20 μM, GFP-NLS 5 μM, 1 minute
  Mean % cells with GFP signal (±St Dev.; n = 3): 60.3 ± 3.2%
[3]; peptide 20 μM, GFP-NLS 5 μM, 1 minute, Protocol B (Table 10.3e)
  GFP-NLS transduction efficiency: 60%
[3]; shuttle 35 μM, GFP-NLS 5 μM, 10 seconds, Protocol B
  GFP-NLS delivery (microscopy, in words): successfully transduced and delivered to the nucleus and/or the cytosol
[3]; shuttle 50 μM, GFP-NLS 5 μM, exposed 10 seconds, Protocol B, microscopy
  time by which GFP-NLS is delivered to the nucleus: ≤ 2 min

From US12286632B2, “Rationally-designed synthetic peptide shuttle agents for delivering polypeptide cargos from an extracellular space to the cytosol and/or nucleus of a target eukaryotic cell, uses thereof, methods and kits relating to same” (Feldan Bio Inc., priority 2016, dated 2025)
